Data on eight molecules can be found in US9359275B2, “Natural product antibiotics and analogs thereof” (Children's Medical Center Corporation, priority 2012, dated 2016).

In brackets after ≈: the same amount, converted by molar mass. Read-outs that look alike come from different tables or passages of the source. Some results are limits rather than exact numbers.

One assay relates to E. coli ATCC 25922. The assay can be described thus: MIC, microdilution broth method in CAMHB. It counts as cell-based, Escherichia coli. On the technique in general: Broth dilution looks for growth in wells or tubes with falling amounts of substance.
For the next assay, the system named is P. aeruginosa ATCC 27853. The assay can be described thus: MIC, microdilution broth method in CAMHB. It counts as cell-based, Pseudomonas aeruginosa.
Assay [1] has as its system K. pneumoniae carbapenemase positive ATCC BAA-1705. Description: MIC, microdilution broth method in CAMHB. It counts as cell-based, Klebsiella pneumoniae.
The test system of another assay is MRSA ATCC BAA-976. Description: MIC, microdilution broth method in CAMHB. It is filed as cell-based, Staphylococcus aureus.
For another assay, the system named is V. cholerae PW357. The assay can be described thus: MIC, microdilution broth method in CAMHB. It is filed as cell-based, Vibrio cholerae.
The test system of assay [2] is M. tuberculosis H37Rv ATCC 27294. Description: MIC, microplate-based Alamar blue assay (MABA). It counts as cell-based, Mycobacterium tuberculosis. On the technique in general: Resazurin is reduced to fluorescent resorufin, in cell work by metabolically active cells.
For assay [3], the system named is V. cholerae. The assay can be described thus: Growth assay in MMPyr (OD615) and plating for CFU. Conditions: with the assay described.
Procedure: The assays were carried out at 30° C. in pH-MMSuc to monitor sugar fermentation by A615 (FIGS. 5A, 5B, and 5C) or in MMPyr to monitor bacterial growth by OD615 (D, E, and F). Bacteria were exposed to compound 1 (FIGS. 5A and 5D), compound 2 (FIGS. 5B and 5E) or compound 3 (FIGS. 5C and 5F) at concentrations ranging from 14 to 383 μM.
In secondary screens, MM was also supplemented with glucose (0.5% wt/vol), thymol blue (0.006% wt/vol), and bromothymol blue (0.006% wt/vol) (pH-MM^Glu') or pyruvate (0.5% wt/vol) (MM^Pyr).
Conditions were tested in duplicate in each experiment, and two experimental replicates were performed on separate days. […] To determine whether this represented bacteriostatic or bactericidal activity, dilutions of the cell suspensions were plated on LB agar after 20 hours of growth in MM^Pyr supplemented with compound 1 at a concentration of 383 μM.
Assay [4] deals with V. cholerae. The assay can be described thus: Medium acidification (sugar fermentation) assay in pH-MMSuc, A615. Conditions: 30° C.
Procedure: The assays were carried out at 30° C. in pH-MMSuc to monitor sugar fermentation by A615 (FIGS. 5A, 5B, and 5C) or in MMPyr to monitor bacterial growth by OD615 (D, E, and F).
The assays were carried out at 30° C. in pH-MMSuc to monitor sugar fermentation by A615.
A minimal medium (MM) supplemented with sucrose (0.5% wt/vol), thymol blue (0.006% wt/vol) and bromothymol blue (0.006% wt/vol) (pH-MM^Suc) was used for the HTS (Houot et al., J Bacteriol (2008) 190: 311-320).
Conditions were tested in duplicate in each experiment, and two experimental replicates were performed on separate days.
[5] abbreviates: Escherichia coli, ATCC25922, E. coli ATCC 25922, read-out: MIC.
[6] abbreviates: Pseudomonas aeruginosa, ATCC27853, P. aeruginosa ATCC 27853, read-out: MIC.
Setting [7] is: Klebsiella pneumoniae, ATCCBAA1705, K. pneumoniae carbapenemase positive ATCC BAA-1705, read-out: MIC.
Setting [8] is: Staphylococcus aureus, MRSA ATCC BAA-976, read-out: MIC.
The mark [9] stands for this setting: Vibrio cholerae, V. cholerae PW357, read-out: MIC.
[10] abbreviates: Mycobacterium tuberculosis, M. tuberculosis H37Rv ATCC 27294, Alamar Blue Assay, ≧90% inhibition, read-out: MIC.

Usually MIC stands for the lowest concentration that inhibits growth of the organism.

Consider bactrim [TMP/SMX], for which the MIC was 0.125 µg/mL against E. coli ATCC 25922 (E. coli ATCC 25922); >16 µg/mL against P. aeruginosa ATCC 27853; >16 µg/mL in assay [1] (K. pneumoniae carbapenemase positive ATCC BAA-1705); 0.062 µg/mL with MRSA ATCC BAA-976 (MRSA ATCC BAA-976); >16 µg/mL in the assay with V. cholerae PW357 (V. cholerae PW357); 2 µg/mL in assay [2] (M. tuberculosis H37Rv ATCC 27294, Alamar Blue Assay, ≧90% inhibition).

As to `CCCC1=C(CO)C(=O)C=CC1=O` [Compound 3, 2-(hydroxymethyl)-3-propyl benzoquinone], the “antibacterial activity (in words)” value with V. cholerae [3] is recorded as “little to no antibacterial activity”.

Turning to `C[C@@H](O)[C@H]1C(=O)N2C(C(=O)O)=C(SCCN=CN)C[C@H]12` [IMI, imipenem], the MIC in the assay with E. coli ATCC 25922 (setting [5]) was 1.25 µg/mL (≈ 4.18 µM); in the assay on P. aeruginosa ATCC 27853 (setting [6]) it was 5 µg/mL (≈ 16.7 µM); in assay [1] (setting [7]), > 80 µg/mL; with MRSA ATCC BAA-976 (setting [8]), 1.25 µg/mL (≈ 4.18 µM); with V. cholerae PW357 (setting [9]) it was 1.25 µg/mL (≈ 4.18 µM); in assay [2] (setting [10]), 100 µg/mL (≈ 334 µM).

In the case of `CC1Cc2c(ccc(O)c2CO)O1` (centres unmarked) [Compound 2, 5-hydroxy-4-(hydroxymethyl)-2-methyl 2,3-dihydrobenzofuran], in the assay with V. cholerae [3], the “antibacterial activity (in words)” value is listed as “demonstrated anti-bacterial activity”.

`C[C@H]1COc2c(N3CCN(C)CC3)c(F)cc3c(=O)c(C(=O)O)cn1c23` [LEVO, levofloxacin]: the MIC is 0.019 µg/mL (≈ 0.0526 µM) with E. coli ATCC 25922 (setting [5]); 1.25 µg/mL (≈ 3.46 µM) in the assay on P. aeruginosa ATCC 27853 (setting [6]); > 80 µg/mL in assay [1] (setting [7]); 0.312 µg/mL (≈ 0.863 µM) in the assay with MRSA ATCC BAA-976 (setting [8]); < 0.005 µg/mL in the assay with V. cholerae PW357 (setting [9]); 0.25 µg/mL (≈ 0.692 µM) in assay [2] (setting [10]).

`CC1(C)S[C@@H]2[C@H](NC(=O)[C@H](N)c3ccccc3)C(=O)N2[C@H]1C(=O)O` [AMP, ampicillin]: the MIC in the assay on E. coli ATCC 25922 (setting [5]) was 2.5 µg/mL (≈ 7.15 µM); in the assay with P. aeruginosa ATCC 27853 (setting [6]), > 80 µg/mL; in assay [1] (setting [7]) it was > 80 µg/mL; with MRSA ATCC BAA-976 (setting [8]), > 80 µg/mL; in the assay with V. cholerae PW357 (setting [9]) it was 2.5 µg/mL (≈ 7.15 µM); in assay [2] (setting [10]), 0.25 µg/mL (≈ 0.715 µM).

For `CC1(O)CCC(c2c(O)cc3c(c2O)C(=O)c2c(O)cc(O)cc2C3=O)CO1` (centres unmarked) [SC3-22-19], the sugar utilization entry in the assay on V. cholerae [4] is “decreased sugar utilization”.

For `CCCc1c(O)ccc(O)c1CO` [Compound 1, 2-(hydroxymethyl)-3-propyl hydroquinone], the MIC in the assay with E. coli ATCC 25922 (Escherichia coli, ATCC25922) is 80 µg/mL (≈ 439 µM); against P. aeruginosa ATCC 27853 (Pseudomonas aeruginosa, ATCC27853), 80 µg/mL (≈ 439 µM); in assay [1] (Klebsiella pneumoniae, ATCCBAA1705), > 80 µg/mL; in the assay on MRSA ATCC BAA-976 (Staphylococcus aureus) it was 10 µg/mL (≈ 54.9 µM); with V. cholerae PW357 (Vibrio cholerae, PW357), 40 µg/mL (≈ 220 µM); in assay [2] (Mycobacterium tuberculosis), 25 µg/mL (≈ 137 µM). Moreover, the “concentration at which medium acidification was completely blocked” value with V. cholerae [4] was 261 µM. Also, the “concentration at which medium acidification was inhibited” value with V. cholerae [4] was determined as 134 µM.
